Residues, ends and D or L forms follow the SMILES beside them.
Assays:
[1] = system: Sprague Dawley rats injected with LPS (Salmonella Enteritidis); assay: Survival of rats after intravenous LPS (septic shock test); assay type: in vivo, rat; details: male Sprague Dawley rats, LPS i.v. at dose giving about 30% survival, compound 3 μg/kg i.v. immediately after, monitored 7 days; control (LPS only) 23
Protocol: Male Sprague Dawley rats (175-200 g, Charles river, Calco, Italy) were intravenously injected with a dose of LPS (Salmonella Enteritidis, Sigma) in 0.2 ml of physiological solution, previously determined on the same batch of animals, as giving about 30% survival. Thereafter they were randomized into groups of at least 18 animals and each immediately inoculated intravenously with 3 μg/kg of some of the compounds representative of the invention. One group of animals was treated with LPS only and considered as the control. The animals were monitored for the following 7 days to determine their survival.

[2] = system: Wistar rats with left coronary artery ligation; assay: Cardioprotective activity following ischemia induced by occlusion of the left coronary artery in the anesthetized rat; assay type: in vivo; details: anesthetized male Wistar rats, 0.1 μg/kg/min i.v., left coronary artery ligated for 30 minutes
Text: The cardiovascular activity of the compounds of the invention was investigated by means of a test aiming at evaluating the cardioprotective activity following ischemia induced by the occlusion of the left coronary artery in the anestethized rat, performed substantially as described by C. Clark et al. Journ. Exp. Methods, 3, 357, 1980. It is known that the occlusion of the coronary artery causes several events altering the ECG-pattern including, among others, hypoxia, arrhythmias, with eventual death of the laboratory animals.
In this test, male Wistar rats, (350-450 g, Charles River) were divided into groups of at least 18 animals, anestethized with nembutal (65 mg/kg i.p.) and each connected to an electrocardiograph for continuously monitoring the ECG. The animals, maintained under artificial ventilation, underwent thoracotomy and, after incision of the pericardium, a suture thread was passed around the left coronary artery, near to its origins. The animals were then administered intravenously with 0.1 μg/kg/min of the compounds of the invention dissolved in saline. One group of animals (control group) were administered intravenously with saline (5 ml/kg/hr). After 15 minutes recovery, and provided that electocardiographic alteration was not recorded, the left coronary artery was ligated and the ligature was maintained for 30 minutes. During this period the animals were monitored and ventricular tachycardia (VT), ventricular fibrillations (VF) and mortality were7 assessed.

Row | Molecule | Survival percentage [1] [%] | Mortality % ([2]; control 29) [%] | Incidence % V.F. (ventricular fibrillations) ([2]; control 86) [%] | Incidence % V.T. (ventricular tachycardia) ([2]; control 100) [%]
1 | CC(C)CN(C(=O)CN)[C@@H](CCCCN)C(=O)N1CCC[C@H]1C(=O)O [Example 9, H-Gly-(isoBut)Lys-Pro-OH.AcOH] | 39 | – | – | –
2 | N=C(N)NCCC[C@H](NC(=O)[C@@H]1CCCN1C(=O)[C@@H]1CCCN1C(=O)CN)C(=O)O [Example 11, H-Gly-Pro-Pro-Arg-OH.AcOH] (H-GPPR-OH) | 57 | – | – | –
3 | CCN[C@@H](CCCCN)C(=O)N1CCC[C@H]1C(=O)O [Example 12, H-(Et)Lys-Pro-OH.AcOH] | 44 | 12 | 75 | 10
4 | H-Gly-(Bzl)Lys-Pro-Arg-OH.2AcOH [Example 10] | 43 | – | – | –
5 | H-Gly-(Et)Lys-Pro-Arg-OH.2AcOH [Example 15] | 33 | – | – | –
6 | H-Gly-(Et)Lys-Pro-Lys-OH.AcOH [Example 14] | 48 | – | – | –

Reference: patent US6342481B1, “Oligopeptides derived from C-reactive protein fragments” (priority 1993, dated 2002)
